5 molecules from patent US9481673B2, “6-alkynyl-pyridine derivatives” (Boehringer Ingelheim International GmbH, priority 2014, dated 2016) can be followed below.

Molecules are shown by their SMILES. Values after ≈ are worked out from the molar mass of the structure shown. Some results are limits rather than exact numbers.

One data set deals with P450 3A4 (Homo sapiens (Human), UniProt P08684). Put plainly: Cytochrome P450 isoenzyme inhibition assay, hydroxylation of Midazolam. The data set is classed as in vitro ADME.
Another data set has as its target P450 2C19 (Homo sapiens (Human), UniProt P33261). Nature of the data set: Cytochrome P450 isoenzyme inhibition assay, hydroxylation of Mephenytoin. It is filed as in vitro ADME.
The target in another data set is P450 2C9 (Homo sapiens (Human), UniProt P11712). Nature of the data set: Cytochrome P450 isoenzyme inhibition assay, hydroxylation of Diclofenac. It is filed as in vitro ADME.
A short description of data set [1]: Solubility measurement (DMSO solution precipitation method). The data set is classed as physicochemical. The note with it: aqueous buffer, kinetic from dmso stock; for solubility at 24 h: McIlvaine buffer, measured examples from WO 2013/127729 (Table 1), pH 6.8.
The next data set addresses P450 2D6 (Homo sapiens (Human), UniProt P10635). Nature of the data set: Cytochrome P450 isoenzyme inhibition assay, demethylation of Dextromethorphan. It is filed as in vitro ADME.
Another data set has as its target P450 2C8 (Homo sapiens (Human), UniProt P10632). Put plainly: Cytochrome P450 isoenzyme inhibition assay, deethylation of Amodiaquine. The data set is classed as in vitro ADME.
The next data set concerns the target cIAP1 BIR3 (Homo sapiens (Human), UniProt Q13490). Put plainly: cIAP1 BIR3 binding assay (DELFIA), BIR3-SMAC peptide interaction. The note with it: (S)-isomers; BIR3 domain 10 nM, SMAC peptide 10 nM; read-out: cIAP1 BIR-3 IC50.
Where [2] appears, read: measured examples from WO 2013/127729 (Table 1).
Where [3] appears, read: (S)-isomers, human liver microsomes, 37° C.

As usually defined, the IC50 is the concentration needed to halve the response being measured. One may read the solubility as the concentration that dissolves in the medium under given conditions. A high value points to much dissolved substance. With `CNC(C)C(=O)Nc1ccc(-c2c(-c3ccncc3)nc3cc(C)ccn23)c(C#Cc2ccccc2)n1` (centres unmarked) [Ex 185, reference compound], the IC50 at P450 3A4 (setting [2]) is 3000 nM; at P450 2C19 (setting [2]), 16000 nM; at P450 2C9 (setting [2]), 4800 nM; on P450 2D6 (setting [2]), 2700 nM; against P450 2C8 (setting [2]) it was 1700 nM. The molecule also gave a solubility at 24 h in data set [1] of 60 µg/mL (≈ 123 µM).
As for `CN[C@@H](C)C(=O)Nc1ccc(-c2c(-c3ccnc(C)c3)nc3cc(C)ccn23)c(C#Cc2ccc3c(C)nccc3c2)n1` [(S)-2, (2S)-N-{5-[7-methyl-2-(2-methylpyridin-4-yl)imidazo[1,2-a]-pyridin-3-yl]-6-[2-(1-methylisoquinolin-6-yl)ethynyl]pyridin-2-yl}-2-(methylamino)-propanamide], the IC50 is more than 50000 nM against P450 3A4 (setting [3]); 1900 nM at P450 2C19 (setting [3]); 1 nM on cIAP1 BIR3; more than 50000 nM on P450 2C9 (setting [3]); more than 50000 nM on P450 2D6 (setting [3]); 900 nM on P450 2C8 (setting [3]). Further, the solubility kinetic at 24 h in data set [1] ((S)-isomers, McIlvaine buffer pH 6.8, 24 h shaking at ambient temperature, read-out: Sol pH 6.8) was 8 µg/mL (≈ 14.1 µM).
In the case of `CNC(C)C(=O)Nc1ccc(-c2c(-c3ccncc3)nc3cc(C)ccn23)c(C#Cc2ccc3nc(C)ccc3c2)n1` (centres unmarked) [Ex 64, reference compound], the IC50 was determined as 2100 nM on P450 3A4 (setting [2]); 4300 nM against P450 2C19 (setting [2]); 400 nM against P450 2C9 (setting [2]); 5200 nM against P450 2D6 (setting [2]); 500 nM against P450 2C8 (setting [2]).
As to `CNC(C)C(=O)Nc1ccc(-c2c(-c3ccncc3)nc3cc(C)ccn23)c(C#Cc2ccc3c(c2)OCC(=O)N3C)n1` (centres unmarked) [Ex 94, reference compound], the IC50 against P450 3A4 (setting [2]) is more than 50000 nM; on P450 2C19 (setting [2]), 2900 nM; against P450 2C9 (setting [2]) it was 700 nM; at P450 2D6 (setting [2]) it was 3300 nM; against P450 2C8 (setting [2]), 4900 nM.
Take `CNC(C)C(=O)Nc1ccc(-c2c(-c3ccncc3)nc3cc(C)ccn23)c(C#Cc2ccc3c(ccc(=O)n3C)c2)n1` (centres unmarked) [Ex 81, reference compound]: the IC50 against P450 3A4 (setting [2]) worked out at 4000 nM; against P450 2C19 (setting [2]), 2800 nM; on P450 2C9 (setting [2]), 900 nM; on P450 2D6 (setting [2]), 3400 nM; against P450 2C8 (setting [2]), 1200 nM. The same molecule yielded a solubility at 24 h in data set [1] of 8 µg/mL (≈ 14.1 µM).
